Test results taken from PMC9845330 (Communications Biology, 2023).
“Also recorded” adds a separate entry of the source. Non-standard residues stand in square brackets, D forms with d. Residues, ends and D or L forms follow the SMILES beside them. *: point of attachment. X1 = O=C(CCCC[C@@H]1SC[C@@H]2NC(=O)N[C@@H]21)NCCCOCCOCCOCCCN*; PEG12 = NCCOCCOCCOCCOCCOCCOCCOCCOCCOCCOCCOCCOCCC(=O)O

Test system: subcutaneous H2009 tumors
Experiment: Tumor homing by near infrared imaging
Format: in vivo, mouse
Details: for Total Radiant Efficiency: Mean
Description: Use of MGS4 as a delivery agent relies on its ability to target a tumor in an animal. MGS4_V8 and MGS4_V6 (control) were conjugated directly to Alexa Fluor 750. Each conjugate was injected intravenously into immunocompromised mice bearing subcutaneous H2009 tumors, and accumulation of the peptide was measured by near infrared imaging (Fig. 5a). MGS4_V8 tumor homing is observed at 12 h and 85% of that signal is maintained at 24 h. MGS4_V8 signal remains at 48 and 72 h, indicating persistent retention of the dye in the tumor. At all times, MGS4_V8 has 25-40-fold increased signal compared to the control peptide. […] Tumors were fixed in paraformaldehyde followed by whole tumor imaging on a LI-COR® Odyssey (Fig. 5b). A clear visual difference exists between tumors isolated from mice treated with MGS4_V8 compared to those treated with MGS4_V6 control or untreated. Quantification of fluorescence results in a 240-fold higher signal in the MGS4_V8 treated tumors compared to the MGS4_V6 group. Similar results were obtained when subcutaneous H1299 tumors were established in mice (Supplemental Fig. 5).
Fig. 5 MGS4_V8 homes to xenograft tumor after systemic delivery and can deliver saporin resulting in reduced tumor growth. a H2009 tumor bearing nude mice (N = 4) were injected I.V. with MGS4_V8 or MGS4_V6 conjugated to NIR dye Alexa Fluor 750. At 12, 24, 48, and 72 h postinjection, mice were anesthetized and imaged on an IVIS® (Perkin Elmer) to measure total radiant efficiency in each tumor. MGS4_V8 accumulates in tumor 25–39 fold better than control peptide, MGS4_V6. […] Ex vivo NIR imaging of the tumors at the end of the experiment mirrors the data observed in the living animals. […] Data for individual animals is included in Supplementary Table 8. b Excised tumors from the previous experiment were fixed in PBS + 4% formaldehyde and then imaged again together on a LI-COR® Odyssey. Arbitrary fluorescence units (AFU) were determined for each tumor and the average and SEM are shown below the image. The mean fluorescent intensity is 240-fold greater for MGS4_V8-Alexa Fluor 750 conjugate than the MGS4_V6 control conjugate. c Saporin was conjugated to either targeting MGS4_V8 or nontargeting MGS4_V6 and 7.5 µg of the conjugate was injected I.V. into mice bearing subcutaneous tumors. Animals were dosed 2 times per week for 2.5 weeks (indicated by arrows). Tumors were measured every other day. MGS4_V8-saporin clearly slows tumor growth, while nontargeted saporin has no effect compared to untreated animals. Error bars represent SEM, *p-value < 0.05, **p-value < 0.01, ***p-value < 0.001, ****p-value < 0.0001 (two-way ANOVA). d Tumor size (mm3) are shown for individual animals at days 0, 6, 12, and 18. Mean value is represented by the horizontal line and the error bars represent standard error. There is no statistical difference between MGS4_V6-Saporin and untreated at any day. At days 12 and 18 MGS4_V8-Saporin is statistically different than untreated (p-values 0.0099 and 0.0029, respectively) and MGS4_V6-Saporin (p-values 0.0069 and 0.0009, respectively). TEXT PRINTED IN THE PICTURE: (b) MGS4_V8: AFU: 3.3e6 ± 1.1e5; 240-fold | (b) MGS4_V6: AFU: 1.2e4 ± 2.7e3 DOUBTS OF THE COPYIST ABOUT THIS PICTURE: Panel b, 240-fold: printed under a line spanning MGS4_V8 and MGS4_V6; assigned to MGS4_V8 / Panel b, Untreated column (AFU: 1.6e3 ± 4.3e2) left out because it is a control without a substance
Animal experiments were approved by SRI International’s Institutional Animal Care and Use committee (Animal Welfare Assurance Number A3025-01, protocol 14008). H2009 cells (10^6) or H1299 cells (10^6) were implanted subcutaneously on the flank of female Nu/Nu mice (Jackson Laboratory, Bar Harbor, ME). When tumors reached 100 mm^3, in vivo experiments were initiated. For imaging, the indicated peptides were conjugated directly to Alexa Fluor 750 near-infrared dye (Supplemental Fig. 1). Four animals per group were used. […]

| Compound | Total Radiant Efficiency (12 h) | tumor signal maintained relative to 12 h (24 h, Alexa Fluor 750 conjugate i.v.) | Total Radiant Efficiency (24 h) | Total Radiant Efficiency (48 h) | Total Radiant Efficiency (72 h (first line)) | Total Radiant Efficiency (72 h (second line)) | fold fluorescence versus MGS4_V6 group (excised fixed tumors, 72 h, LI-COR Odyssey) | tumor signal versus untreated tumors (Alexa Fluor 750 conjugate) |
| --- | --- | --- | --- | --- | --- | --- | --- | --- |
| CC(=O)N[C@@H](Cc1ccccc1)C(=O)N[C@@H](Cc1c[nH]cn1)C(=O)N[C@@H](C)C(=O)N[C@H](C(=O)N1CCC[C@H]1C(=O)N[C@@H](CCC(N)=O)C(=O)N[C@@H](CO)C(=O)N[C@@H](Cc1ccccc1)C(=O)N[C@@H](Cc1ccc(O)cc1)C(=O)N[C@H](C(=O)NCCOCCOCCOCCOCCOCCOCCOCCOCCOCCOCCOCCOCCC(=O)N[C@@H](CCC(=O)NCCCOCCOCCOCCCNC(=O)CCCC[C@@H]1SC[C@@H]2NC(=O)N[C@@H]21)C(N)=O)[C@@H](C)O)C(C)C [MGS4_V8] (Ac-FHAVPQSFYT[PEG12]E(X1)-NH2) | 1.58e+010 | 85% | 1.33e+010 | 7.91e+009 | 7.00e+009 | 2.02e+010 | 240 fold |  |
| *HAVPQSFYT** [MGS4_V6] | 3.94e+008 |  | 3.44e+008 | 2.64e+008 | 2.80e+008 | 2.00e+009 |  | no statistically significant difference; also recorded: statistically no different than untreated tumors |
